Our source for the remaining activity and residual activity values is PMC6458995, “MAP4K4 Inhibition Promotes Survival of Human Stem Cell-Derived Cardiomyocytes and Reduces Infarct Size In Vivo” (Cell Stem Cell, 2019).

Holding throughout (experiment): Dundee kinase panel
Holding throughout (assay type): biochemical
Common to all, as to conditions: for remaining activity at 1 µM: read-out: residual activity

For one experiment, the target named is T1, TSSK1 (Homo sapiens, UniProt Q9BXA7).
T1 construct: lines 1-140) and Reaction Biology
T1 sequence (Q9BXA7 1-367): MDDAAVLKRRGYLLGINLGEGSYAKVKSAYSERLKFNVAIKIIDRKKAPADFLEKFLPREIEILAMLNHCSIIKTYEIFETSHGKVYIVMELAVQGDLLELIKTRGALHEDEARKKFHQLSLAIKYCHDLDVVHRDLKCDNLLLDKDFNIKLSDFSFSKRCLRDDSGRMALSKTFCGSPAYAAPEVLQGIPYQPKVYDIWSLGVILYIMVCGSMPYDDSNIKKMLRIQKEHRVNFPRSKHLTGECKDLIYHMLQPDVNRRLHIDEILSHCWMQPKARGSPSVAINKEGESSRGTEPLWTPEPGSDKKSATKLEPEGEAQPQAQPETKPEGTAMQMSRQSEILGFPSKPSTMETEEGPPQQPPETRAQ
Here is the method: (§1) Compounds were screened at 1 μM. For key hits, pIC50 values were then determined by HTRF as above. […] Stability in mouse and human liver microsomes was determined by Cyprotex.

The next experiment deals with T2, CDK9-Cyclin T1 (Homo sapiens, UniProt P50750).
T2 construct: lines 1-140) and Reaction Biology
Here is the method: as §1

The target in another experiment is T3, TTK (Homo sapiens, UniProt P33981).
T3 construct: lines 1-140) and Reaction Biology
T3 sequence (P33981 1-857): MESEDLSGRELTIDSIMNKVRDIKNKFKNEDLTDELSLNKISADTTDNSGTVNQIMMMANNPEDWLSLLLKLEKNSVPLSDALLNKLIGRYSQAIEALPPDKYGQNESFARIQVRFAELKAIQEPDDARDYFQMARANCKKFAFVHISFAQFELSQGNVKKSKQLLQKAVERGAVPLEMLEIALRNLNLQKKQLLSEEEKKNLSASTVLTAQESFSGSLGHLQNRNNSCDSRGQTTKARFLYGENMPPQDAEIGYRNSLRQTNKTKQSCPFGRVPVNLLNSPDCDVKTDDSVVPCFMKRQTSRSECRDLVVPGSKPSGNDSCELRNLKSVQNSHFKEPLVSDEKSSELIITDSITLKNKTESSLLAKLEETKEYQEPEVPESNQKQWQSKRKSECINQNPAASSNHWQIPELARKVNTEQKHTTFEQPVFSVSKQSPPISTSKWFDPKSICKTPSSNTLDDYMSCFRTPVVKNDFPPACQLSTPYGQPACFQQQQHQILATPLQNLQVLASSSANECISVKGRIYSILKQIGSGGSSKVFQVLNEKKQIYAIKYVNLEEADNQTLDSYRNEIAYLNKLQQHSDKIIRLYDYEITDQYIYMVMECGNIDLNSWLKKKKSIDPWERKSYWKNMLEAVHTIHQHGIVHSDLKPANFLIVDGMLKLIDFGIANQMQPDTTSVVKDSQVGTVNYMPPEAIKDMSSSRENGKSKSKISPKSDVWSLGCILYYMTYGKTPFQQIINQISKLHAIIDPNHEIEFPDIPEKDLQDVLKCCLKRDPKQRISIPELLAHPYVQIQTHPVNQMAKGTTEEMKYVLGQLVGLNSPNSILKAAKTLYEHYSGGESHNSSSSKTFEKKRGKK
Here is the method:
as §1

The target of the next experiment is T4, TTBK2 (Homo sapiens, UniProt Q6IQ55).
T4 construct: lines 1-140) and Reaction Biology
T4 sequence (Q6IQ55 whole entry): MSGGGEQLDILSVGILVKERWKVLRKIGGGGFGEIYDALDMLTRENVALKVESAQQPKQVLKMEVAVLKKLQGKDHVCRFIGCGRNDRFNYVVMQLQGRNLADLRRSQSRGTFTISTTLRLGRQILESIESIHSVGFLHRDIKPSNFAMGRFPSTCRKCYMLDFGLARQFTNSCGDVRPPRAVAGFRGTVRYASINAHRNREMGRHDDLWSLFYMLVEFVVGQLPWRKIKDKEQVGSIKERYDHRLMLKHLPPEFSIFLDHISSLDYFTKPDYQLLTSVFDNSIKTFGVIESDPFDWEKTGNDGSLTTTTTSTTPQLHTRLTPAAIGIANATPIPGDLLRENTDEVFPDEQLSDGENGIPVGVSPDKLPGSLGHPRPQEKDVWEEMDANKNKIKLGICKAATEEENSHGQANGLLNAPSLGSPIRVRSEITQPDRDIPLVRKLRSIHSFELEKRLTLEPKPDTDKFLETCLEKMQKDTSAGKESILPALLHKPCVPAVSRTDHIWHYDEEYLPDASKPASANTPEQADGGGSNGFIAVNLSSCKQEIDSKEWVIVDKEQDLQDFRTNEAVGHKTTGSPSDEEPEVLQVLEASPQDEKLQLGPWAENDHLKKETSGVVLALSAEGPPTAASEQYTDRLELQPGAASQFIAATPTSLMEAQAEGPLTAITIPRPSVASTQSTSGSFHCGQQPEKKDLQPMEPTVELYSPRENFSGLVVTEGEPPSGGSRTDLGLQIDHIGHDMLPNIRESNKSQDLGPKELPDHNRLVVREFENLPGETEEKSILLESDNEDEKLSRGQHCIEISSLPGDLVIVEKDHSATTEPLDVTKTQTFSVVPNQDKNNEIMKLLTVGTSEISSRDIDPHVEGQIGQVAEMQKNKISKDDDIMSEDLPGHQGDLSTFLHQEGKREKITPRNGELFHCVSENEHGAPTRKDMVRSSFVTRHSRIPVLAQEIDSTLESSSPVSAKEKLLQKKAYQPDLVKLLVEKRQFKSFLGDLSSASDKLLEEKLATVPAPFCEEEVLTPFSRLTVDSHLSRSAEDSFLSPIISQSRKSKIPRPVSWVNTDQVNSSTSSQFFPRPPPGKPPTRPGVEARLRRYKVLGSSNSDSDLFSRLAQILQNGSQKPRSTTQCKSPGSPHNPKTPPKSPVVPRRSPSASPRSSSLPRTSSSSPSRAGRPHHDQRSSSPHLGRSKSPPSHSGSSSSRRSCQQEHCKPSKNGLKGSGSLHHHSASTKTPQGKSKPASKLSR
Here is the method: as §1

In a further experiment the target is T5, MEKK1 (Homo sapiens, UniProt Q13233).
T5 construct: lines 1-140) and Reaction Biology
T5 sequence (Q13233 whole entry): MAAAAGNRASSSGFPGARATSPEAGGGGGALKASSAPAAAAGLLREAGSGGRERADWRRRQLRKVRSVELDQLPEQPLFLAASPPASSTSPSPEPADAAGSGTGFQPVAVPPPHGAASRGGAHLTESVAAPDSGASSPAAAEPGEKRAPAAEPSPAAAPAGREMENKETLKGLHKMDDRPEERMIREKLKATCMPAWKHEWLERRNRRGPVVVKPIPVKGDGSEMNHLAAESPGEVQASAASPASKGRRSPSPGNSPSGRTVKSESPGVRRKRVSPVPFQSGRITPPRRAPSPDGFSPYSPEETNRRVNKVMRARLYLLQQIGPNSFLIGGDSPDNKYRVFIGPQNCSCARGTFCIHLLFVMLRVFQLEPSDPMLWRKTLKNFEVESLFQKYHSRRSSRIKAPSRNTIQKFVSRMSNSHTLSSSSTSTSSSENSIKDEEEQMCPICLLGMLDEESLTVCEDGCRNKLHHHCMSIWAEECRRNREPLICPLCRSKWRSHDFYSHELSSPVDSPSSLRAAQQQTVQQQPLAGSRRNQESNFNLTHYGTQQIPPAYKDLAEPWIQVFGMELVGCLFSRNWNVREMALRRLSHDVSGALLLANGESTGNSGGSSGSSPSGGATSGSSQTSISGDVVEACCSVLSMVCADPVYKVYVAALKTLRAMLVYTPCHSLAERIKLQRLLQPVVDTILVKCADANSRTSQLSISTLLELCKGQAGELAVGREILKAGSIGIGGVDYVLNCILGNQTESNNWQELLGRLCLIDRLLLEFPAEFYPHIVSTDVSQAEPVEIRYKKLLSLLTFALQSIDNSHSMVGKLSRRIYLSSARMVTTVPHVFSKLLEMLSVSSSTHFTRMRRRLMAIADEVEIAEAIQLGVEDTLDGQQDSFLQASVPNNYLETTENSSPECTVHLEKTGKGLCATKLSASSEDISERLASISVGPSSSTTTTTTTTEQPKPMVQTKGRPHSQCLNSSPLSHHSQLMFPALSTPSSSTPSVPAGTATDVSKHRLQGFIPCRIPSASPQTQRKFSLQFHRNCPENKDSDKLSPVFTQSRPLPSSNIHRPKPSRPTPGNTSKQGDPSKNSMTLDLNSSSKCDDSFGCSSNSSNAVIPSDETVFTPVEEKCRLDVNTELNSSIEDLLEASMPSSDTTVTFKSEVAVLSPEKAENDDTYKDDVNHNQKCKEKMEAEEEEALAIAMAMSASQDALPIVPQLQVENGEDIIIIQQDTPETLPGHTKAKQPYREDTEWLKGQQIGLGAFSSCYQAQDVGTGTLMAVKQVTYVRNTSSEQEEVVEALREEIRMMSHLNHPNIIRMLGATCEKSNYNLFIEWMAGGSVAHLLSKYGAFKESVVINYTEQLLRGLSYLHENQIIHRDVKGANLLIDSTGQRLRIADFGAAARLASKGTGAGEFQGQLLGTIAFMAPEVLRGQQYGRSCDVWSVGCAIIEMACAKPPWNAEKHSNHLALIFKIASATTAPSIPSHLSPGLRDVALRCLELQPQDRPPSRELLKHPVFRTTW
Here is the method: as §1

In a further experiment the target is T6, CHK1 (Homo sapiens, UniProt O14757).
T6 construct: lines 1-140) and Reaction Biology
T6 sequence (O14757 1-476): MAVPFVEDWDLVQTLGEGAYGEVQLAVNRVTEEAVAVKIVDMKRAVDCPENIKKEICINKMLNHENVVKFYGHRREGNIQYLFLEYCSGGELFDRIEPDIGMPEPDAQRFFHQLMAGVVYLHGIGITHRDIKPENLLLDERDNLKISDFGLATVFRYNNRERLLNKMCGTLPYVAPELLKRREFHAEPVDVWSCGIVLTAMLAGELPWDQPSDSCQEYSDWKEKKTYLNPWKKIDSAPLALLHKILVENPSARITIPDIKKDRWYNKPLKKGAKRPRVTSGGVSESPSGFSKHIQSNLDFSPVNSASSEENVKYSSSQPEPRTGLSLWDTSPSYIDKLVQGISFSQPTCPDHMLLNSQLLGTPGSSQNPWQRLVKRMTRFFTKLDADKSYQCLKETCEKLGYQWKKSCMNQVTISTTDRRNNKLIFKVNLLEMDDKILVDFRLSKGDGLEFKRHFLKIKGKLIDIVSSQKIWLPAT
Here is the method: as §1

A further experiment addresses T7, PRAK (Homo sapiens, UniProt Q8IW41).
T7 construct: lines 1-140) and Reaction Biology
T7 sequence (Q8IW41 1-473): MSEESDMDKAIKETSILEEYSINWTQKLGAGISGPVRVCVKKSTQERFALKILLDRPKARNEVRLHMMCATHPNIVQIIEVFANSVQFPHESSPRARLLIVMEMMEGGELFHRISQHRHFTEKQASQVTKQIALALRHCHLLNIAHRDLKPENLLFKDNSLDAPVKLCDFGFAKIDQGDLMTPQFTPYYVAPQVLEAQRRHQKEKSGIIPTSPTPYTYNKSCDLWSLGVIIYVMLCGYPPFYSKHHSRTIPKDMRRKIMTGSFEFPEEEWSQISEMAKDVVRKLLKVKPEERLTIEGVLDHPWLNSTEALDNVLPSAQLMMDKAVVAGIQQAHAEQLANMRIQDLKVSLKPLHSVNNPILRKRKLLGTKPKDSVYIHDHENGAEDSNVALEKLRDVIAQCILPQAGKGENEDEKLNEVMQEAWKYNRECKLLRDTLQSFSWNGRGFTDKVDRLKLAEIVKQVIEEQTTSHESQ
Here is the method: as §1

In a further experiment the target is T8, CAMKKb (Homo sapiens, UniProt Q96RR4).
T8 construct: lines 1-140) and Reaction Biology
Here is the method: as §1

The target of the next experiment is T9, MKK2 (Homo sapiens, UniProt P36507).
T9 construct: lines 1-140) and Reaction Biology
T9 sequence (P36507 whole entry): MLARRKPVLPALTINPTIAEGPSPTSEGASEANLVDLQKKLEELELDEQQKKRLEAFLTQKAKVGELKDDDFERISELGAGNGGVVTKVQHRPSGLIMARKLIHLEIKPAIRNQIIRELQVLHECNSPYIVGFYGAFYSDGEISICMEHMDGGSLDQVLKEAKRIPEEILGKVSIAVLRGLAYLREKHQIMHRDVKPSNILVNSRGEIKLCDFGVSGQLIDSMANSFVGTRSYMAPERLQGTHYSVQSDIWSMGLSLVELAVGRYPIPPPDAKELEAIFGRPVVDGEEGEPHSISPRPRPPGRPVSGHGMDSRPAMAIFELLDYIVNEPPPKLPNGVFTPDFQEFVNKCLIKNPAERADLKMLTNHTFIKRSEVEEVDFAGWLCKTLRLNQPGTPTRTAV
Here is the method:
as §1

In another experiment the target is T10, TRKA (Homo sapiens, UniProt P04629).
T10 construct: lines 1-140) and Reaction Biology
Here is the method:
as §1

For a further experiment, the target named is T11, CLK2 (Homo sapiens, UniProt P49760).
T11 construct: lines 1-140) and Reaction Biology
T11 sequence (P49760 whole entry): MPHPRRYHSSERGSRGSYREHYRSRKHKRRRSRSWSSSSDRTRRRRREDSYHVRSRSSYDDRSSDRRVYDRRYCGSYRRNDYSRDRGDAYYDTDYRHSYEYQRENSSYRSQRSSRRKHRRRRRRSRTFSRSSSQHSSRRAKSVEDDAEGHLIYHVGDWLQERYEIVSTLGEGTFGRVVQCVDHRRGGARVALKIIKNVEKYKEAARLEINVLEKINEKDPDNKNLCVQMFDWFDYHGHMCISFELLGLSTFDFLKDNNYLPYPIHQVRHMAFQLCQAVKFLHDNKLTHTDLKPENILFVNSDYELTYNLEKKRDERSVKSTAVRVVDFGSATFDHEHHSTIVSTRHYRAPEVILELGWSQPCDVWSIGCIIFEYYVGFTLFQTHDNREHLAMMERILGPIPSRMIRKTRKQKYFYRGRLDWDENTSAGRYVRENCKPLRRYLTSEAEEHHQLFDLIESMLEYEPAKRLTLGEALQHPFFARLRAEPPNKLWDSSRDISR
Here is the method: as §1

A further experiment addresses T12, PIM1 (Homo sapiens, UniProt P11309).
T12 construct: lines 1-140) and Reaction Biology
Here is the method: as §1

In the next experiment the target is T13, PRK2 (Homo sapiens, UniProt Q16513).
T13 construct: lines 1-140) and Reaction Biology
Here is the method:
as §1

The next experiment has as its target T14, IRAK1 (Homo sapiens, UniProt P51617).
T14 construct: lines 1-140) and Reaction Biology
Here is the method:
as §1

T14 sequence (P51617 whole entry): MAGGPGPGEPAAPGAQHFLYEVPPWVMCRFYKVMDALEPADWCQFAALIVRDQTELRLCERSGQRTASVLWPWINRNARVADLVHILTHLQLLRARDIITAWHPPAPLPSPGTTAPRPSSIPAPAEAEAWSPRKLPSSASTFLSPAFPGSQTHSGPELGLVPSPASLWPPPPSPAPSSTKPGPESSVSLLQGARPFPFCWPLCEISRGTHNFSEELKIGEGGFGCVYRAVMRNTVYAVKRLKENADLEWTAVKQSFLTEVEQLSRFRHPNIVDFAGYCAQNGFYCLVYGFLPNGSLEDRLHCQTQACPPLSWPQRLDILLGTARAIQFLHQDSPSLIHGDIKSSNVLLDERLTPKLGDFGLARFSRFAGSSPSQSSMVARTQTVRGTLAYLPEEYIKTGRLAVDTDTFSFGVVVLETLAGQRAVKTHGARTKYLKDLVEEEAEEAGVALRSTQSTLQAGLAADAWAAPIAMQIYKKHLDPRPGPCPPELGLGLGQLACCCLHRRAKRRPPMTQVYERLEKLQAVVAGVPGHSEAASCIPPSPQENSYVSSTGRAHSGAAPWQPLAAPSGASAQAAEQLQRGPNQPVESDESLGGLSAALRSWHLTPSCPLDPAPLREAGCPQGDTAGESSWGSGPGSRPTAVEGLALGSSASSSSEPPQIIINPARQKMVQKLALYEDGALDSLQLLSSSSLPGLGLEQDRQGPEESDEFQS
T12 sequence (P11309 whole entry): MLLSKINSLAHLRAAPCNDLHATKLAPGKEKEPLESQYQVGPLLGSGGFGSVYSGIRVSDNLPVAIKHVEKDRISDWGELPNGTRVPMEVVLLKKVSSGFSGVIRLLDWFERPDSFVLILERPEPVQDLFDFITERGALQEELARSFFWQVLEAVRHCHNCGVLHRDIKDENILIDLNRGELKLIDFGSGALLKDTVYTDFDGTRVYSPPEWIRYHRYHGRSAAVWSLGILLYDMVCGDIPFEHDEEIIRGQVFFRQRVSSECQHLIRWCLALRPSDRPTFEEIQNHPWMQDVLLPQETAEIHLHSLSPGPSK

Consider `COCCOc1ccc(-c2cn(-c3ccccc3)c3nc[nH]c(=O)c23)cc1` [DMX-5804, 5-[4-(2-methoxy-ethoxy)-phenyl]-7-phenyl-3,7-dihydro-pyrrolo[2,3-d]pyrimidin-4-one], for which the remaining activity at 1 µM was found to be 103% at TSSK1; 113% on CDK9-Cyclin T1; 105% at TTK; 108% on TTBK2; 111% on MEKK1; 86% on CHK1. Moreover, the remaining activity at 1 µM turned out to be 92% on PRAK; 77% on CAMKKb; 98% on MKK2; 74% at TRKA; 73% at CLK2; 98% on PIM1. The figures for the remaining activity at 1 µM at PRK2 and on IRAK1 were 90% and 100%, respectively.

Regarding `Oc1ncnc2c1c(-c1ccccc1)cn2-c1ccccc1` [F1386-0303, 5,7-diphenyl-7H-pyrrolo[2,3-d]pyrimidin-4-ol], the remaining activity at 1 µM is 109% at TSSK1; 88% on CDK9-Cyclin T1; 97% at TTK; 99% at TTBK2; 97% on MEKK1; 98% at CHK1. In addition, the remaining activity at 1 µM was found to be 113% on PRAK; 98% at CAMKKb; 102% at MKK2; 89% at TRKA; 94% at CLK2; 122% on PIM1. Besides, the remaining activity at 1 µM on PRK2 was 111%; at IRAK1, 107%.

`Nc1ncc(C(=O)NC2CN(C(=O)C3CC3)C2)c2ccc(-c3cccc(F)c3)nc12` [GNE-495]: the residual activity (usually the signal under treatment as a percentage of the control signal) on TSSK1 (1 μM) came out at 77%; at CDK9-Cyclin T1 (1 μM), 78%; at TTK (1 μM), 87%; on TTBK2 (1 μM), 116%; on MEKK1 (1 μM), 87%; at CHK1 (1 μM) it was 93%. Also, the residual activity is 91% at PRAK (1 μM); 105% at CAMKKb (1 μM); 75% at MKK2 (1 μM); 68% on TRKA (1 μM); 87% on CLK2 (1 μM); 103% on PIM1 (1 μM). Also, the residual activity at PRK2 (1 μM) is 85%; on IRAK1 (1 μM) it was 113%.

On to `O=C1Nc2ccc(I)cc2/C1=C/c1cc(Br)c(O)c(Br)c1` [GW5074], for which the remaining activity at 1 µM at TSSK1 was 73%; on CDK9-Cyclin T1, 104%; on TTK, 88%; at TTBK2, 83%; on MEKK1 it was 5%; at CHK1, 33%. The remaining activity at 1 µM at PRAK turned out to be 93%; on CAMKKb, 19%; on MKK2 it was 79%; on TRKA, 51%; at CLK2 it was 53%; at PIM1, 76%. Besides, the remaining activity at 1 µM came to 68% on PRK2 and 57% at IRAK1.

Consider `O=C1Cc2c([nH]c3ccc(Br)cc23)-c2ccccc2N1` [Kenpaullone], for which the remaining activity at 1 µM at TSSK1 is 46%; at CDK9-Cyclin T1, 22%; on TTK, 97%; on TTBK2, 95%; on MEKK1, 5%; on CHK1 it was 68%. Moreover, the remaining activity at 1 µM on PRAK was determined as 95%; at CAMKKb, 72%; on MKK2 it was 91%; on CLK2, 109%; at PIM1 it was 90%; on PRK2 it was 57%. Further, the remaining activity at 1 µM on IRAK1 amounted to 39%.
